Where a name gives a salt, the structure may show the parent alone.
Biological target: T1, S1P1 receptor (S1P1 expressing RH7777 membranes) (Homo sapiens, UniProt P21453)
T1 construct: expressed in transfected cells; host or cells: RH7777 cells (membranes)
Experiment: S1P1 GTPγS assay
Assay type: biochemical
Details: tested in one of the above S1P1 assays (two GTPγS formats)
Experimental: The potencies and efficacies of the compounds of this invention for the S1P1 receptor can be determined by GTPγS assay performed on the human cloned receptor as described herein.
Membrane preparation for S1P1 GTPγS assay
All steps were performed at 4° C. Cells were homogenised within a glass Waring blender for 2 bursts of 15 secs in 200 mls of buffer (50 mM HEPES, 1 mM leupeptin, 25 μg/ml bacitracin, 1 mM EDTA, 1 mM PMSF, 2 μM pepstatin A). The blender was plunged into ice for 5 mins after the first burst and 10-40 mins after the final burst to allow foam to dissipate. The material was then spun at 500 g for 20 mins and the supernatant spun for 36 mins at 48,000 g. The pellet was resuspended in the same buffer as above but without PMSF and pepstatin A. The material was then forced through a 0.6 mm needle, made up to the required volume, (usually x4 the volume of the original cell pellet), aliquoted and stored frozen at −80° C.
S1P1 expressing RH7777 membranes (1.5 μg/well) membranes (1.5 μg/well) were homogenised by passing through a 23 G needle. These were then adhered to WGA-coated SPA beads (0.125 mg/well) in assay buffer (HEPES 20 mM, MgCl2 10 mM, NaCl 100 mM and pH adjusted to 7.4 using KOH 5M). GDP 10 μM FAC and saponin 90 μg/ml FAC were also added
After 30 minutes precoupling on ice, the bead and membrane suspension was dispensed into white Greiner polypropylene LV 384-well plates (5 μl/well), containing […] of compound. 5 μl/well [^35S]-GTPγS (0.5 nM for S1P1 or 0.3 nM for S1P3 final radioligand concentration) made in assay buffer was then added to the plates. The final assay cocktail (10.1 μl) was then sealed, spun on a centrifuge, then read immediately on a Viewlux instrument.
Alternatively, after 30 minutes precoupling on ice, the bead and membrane suspension was mixed with ^35S]-GTPγS (0.5 nM final radioligand concentration) in assay buffer (HEPES 20 mM, MgCl2 10 mM, NaCl 100 mM and pH adjusted to 7.4 using KOH 5M) in a 1:1 ratio. The bead, membrane and radioligand suspension was dispensed into white Greiner polypropylene low volume 384-well plates (10 μl/well), containing 0.1 μl of a solution of test compound in 100% DMSO. The final assay cocktail (10.1 μl) was then sealed, spun on a centrifuge, then read immediately on a Viewlux instrument.

T1 sequence (P21453 whole entry): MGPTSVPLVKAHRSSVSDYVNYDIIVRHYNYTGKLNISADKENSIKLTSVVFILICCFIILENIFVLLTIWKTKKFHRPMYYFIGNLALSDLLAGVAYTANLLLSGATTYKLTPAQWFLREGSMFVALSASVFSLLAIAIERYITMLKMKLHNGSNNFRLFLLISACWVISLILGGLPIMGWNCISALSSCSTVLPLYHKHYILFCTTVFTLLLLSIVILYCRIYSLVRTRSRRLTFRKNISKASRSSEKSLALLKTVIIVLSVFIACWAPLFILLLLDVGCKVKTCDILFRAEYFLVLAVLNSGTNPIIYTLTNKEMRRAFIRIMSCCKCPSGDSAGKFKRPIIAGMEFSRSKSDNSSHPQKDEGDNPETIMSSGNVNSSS

EC50 [nM] | SMILES
≤ 100 | Cc1c(-c2noc(-c3ccc(OC(C)C)c(C#N)c3)n2)ccc2c1CCN(C(=O)[C@](C)(N)CO)C2 [Example 85, 2-[(1-methylethyl)oxy]-5-{3-[5-methyl-2-(2-methyl-D-seryl)-1,2,3,4-tetrahydro-6-isoquinolinyl]-1,2,4-oxadiazol-5-yl}benzonitrile]
≤ 100 | CCCOc1ccc(-c2nc(-c3ccc4c(c3)CCN(C(=O)CN)CC4)no2)cc1C#N [Example 62, 5-[3-(3-glycyl-2,3,4,5-tetrahydro-1H-3-benzazepin-7-yl)-1,2,4-oxadiazol-5-yl]-2-(propyloxy)benzonitrile]
≤ 100 | CC(C)Oc1ccc(-c2nc(-c3ccc4c(c3)CCN(CCCO)CC4)no2)cc1C#N [Example 20, 5-{3-[3-(3-Hydroxypropyl)-2,3,4,5-tetrahydro-1H-3-benzazepin-7-yl]-1,2,4-oxadiazol-5-yl}-2-[(1-methylethyl)oxy]benzonitrile]
≤ 100 | CC(C)Oc1ccc(-c2nc(-c3cccc4c3CCN(CCO)CC4)no2)cc1C#N [Example 34, 5-{3-[3-(2-Hydroxyethyl)-2,3,4,5-tetrahydro-1H-3-benzazepin-6-yl]-1,2,4-oxadiazol-5-yl}-2-[(1-methylethyl)oxy]benzonitrile]
≤ 10 | CC(C)Oc1ncc(-c2nc(-c3ccc4c(c3)CCN(C[C@H](O)CO)CC4)no2)cc1C#N [Example 96, 5-(3-{3-[(2S)-2,3-dihydroxypropyl]-2,3,4,5-tetrahydro-1H-3-benzazepin-7-yl}-1,2,4-oxadiazol-5-yl)-2-[(1-methylethyl)oxy]-3-pyridinecarbonitrile]
≤ 10 | CC(C)Oc1ccc(-c2nc(-c3ccc4c(c3)CCN(C(=O)CN[C@@H](C)CO)CC4)no2)cc1C#N [Example 99, 5-[3-(3-{N-[(1S)-2-hydroxy-1-methylethyl]glycyl}-2,3,4,5-tetrahydro-1H-3-benzazepin-7-yl)-1,2,4-oxadiazol-5-yl]-2-[(1-methylethyl)oxy]benzonitrile hydrochloride]
≤ 100 | CC(C)Oc1ccc(-c2nc(-c3cccc4c3CCN(CC(O)CO)CC4)no2)cc1C#N (stereo not shown) [Example 35, 5-{3-[3-(2,3-Dihydroxypropyl)-2,3,4,5-tetrahydro-1H-3-benzazepin-6-yl]-1,2,4-oxadiazol-5-yl}-2-[(1-methylethyl)oxy]benzonitrile hydrochloride]
≤ 100 | CC(C)Oc1ccc(-c2nc(-c3ccc4c(c3)CCN(C(=O)CNCCO)CC4)no2)cc1C#N [Example 86, 5-(3-{3-[N-(2-hydroxyethyl)glycyl]-2,3,4,5-tetrahydro-1H-3-benzazepin-7-yl}-1,2,4-oxadiazol-5-yl)-2-[(1-methylethyl)oxy]benzonitrile hydrochloride]
≤ 100 | CC(C)Oc1ccc(-c2nc(-c3ccc4c(c3)CCN(C(=O)[C@H](N)[C@@H](C)O)CC4)no2)cc1C#N [Example 58, 5-[3-(3-D-allothreonyl-2,3,4,5-tetrahydro-1H-3-benzazepin-7-yl)-1,2,4-oxadiazol-5-yl]-2-[(1-methylethyl)oxy]benzonitrile]
≤ 1000 | CC(C)Oc1ccc(-c2nc(-c3ccc4c(c3)CCN(C(=O)C(C)(C)N)CC4)no2)cc1C#N [Example 117, 5-{3-[3-(2-methylalanyl)-2,3,4,5-tetrahydro-1H-3-benzazepin-7-yl]-1,2,4-oxadiazol-5-yl}-2-[(1-methylethyl)oxy]benzonitrile]
≤ 1000 | N#Cc1cc(-c2nc(-c3ccc4c(c3)CCN(C(=O)CN)CC4)no2)ccc1N1CCC(F)C1 (stereo not shown) [Example 57, 2-(3-fluoro-1-pyrrolidinyl)-5-[3-(3-glycyl-2,3,4,5-tetrahydro-1H-3-benzazepin-7-yl)-1,2,4-oxadiazol-5-yl]benzonitrile]
≤ 1000 | N#Cc1cc(-c2nc(-c3ccc4c(c3)CCN(C(=O)CN)CC4)no2)ccc1N1CC(F)C1 [Example 94, 2-(3-fluoro-1-azetidinyl)-5-[3-(3-glycyl-2,3,4,5-tetrahydro-1H-3-benzazepin-7-yl)-1,2,4-oxadiazol-5-yl]benzonitrile]

Continued, compound first:

SMILES | EC50 [nM]
CC(C)Oc1ccc(-c2nc(-c3ccc4c(c3)CCN(CCO)CC4)no2)cc1C#N [Example 19, 5-{3-[3-(2-Hydroxyethyl)-2,3,4,5-tetrahydro-1H-3-benzazepin-7-yl]-1,2,4-oxadiazol-5-yl}-2-[(1-methylethyl)oxy]benzonitrile] | ≤ 100
Cc1c(-c2noc(-c3ccc(OC(C)C)c(C#N)c3)n2)ccc2c1CCN(C(CO)CO)C2 [Example 65, 5-(3-{2-[2-hydroxy-1-(hydroxymethyl)ethyl]-5-methyl-1,2,3,4-tetrahydro-6-isoquinolinyl}-1,2,4-oxadiazol-5-yl)-2-[(1-methylethyl)oxy]benzonitrile] | ≤ 1000
COCCN1CCc2ccc(-c3nnc(-c4ccc(OC(C)C)c(C#N)c4)s3)cc2CC1 [Example 30, 2-[(1-Methylethyl)oxy]-5-(5-{3-[2-(methyloxy)ethyl]-2,3,4,5-tetrahydro-1H-3-benzazepin-7-yl}-1,3,4-thiadiazol-2-yl)benzonitrile hydrochloride] | ≤ 1000
Cc1c(-c2noc(-c3ccc(OC(C)C)c(C#N)c3)n2)ccc2c1CCN(CC(=O)NC[C@@H](C)O)C2 [Example 120, 2-[6-(5-{3-cyano-4-[(1-methylethyl)oxy]phenyl}-1,2,4-oxadiazol-3-yl)-5-methyl-3,4-dihydro-2(1H)-isoquinolinyl]-N-[(2R)-2-hydroxypropyl]acetamide hydrochloride] | ≤ 10
N#Cc1cc(-c2nc(-c3ccc4c(c3)CCN(CC(O)CO)CC4)no2)ccc1OC(CF)CF (stereo not shown) [Example 60, 5-{3-[3-(2,3-dihydroxypropyl)-2,3,4,5-tetrahydro-1H-3-benzazepin-7-yl]-1,2,4-oxadiazol-5-yl}-2-{[2-fluoro-1-(fluoromethyl)ethyl]oxy}benzonitrile] | ≤ 100
Cc1c(-c2noc(-c3ccc(OC(C)C)c(C#N)c3)n2)ccc2c1CCN(CC(=O)NC[C@H](C)O)C2 [Example 121, 2-[6-(5-{3-cyano-4-[(1-methylethyl)oxy]phenyl}-1,2,4-oxadiazol-3-yl)-5-methyl-3,4-dihydro-2(1H)-isoquinolinyl]-N-[(2S)-2-hydroxypropyl]acetamide hydrochloride] | ≤ 10
CCCNc1ncc(-c2nc(-c3ccc4c(c3)CCN(C(CO)CO)CC4)no2)cc1C#N [Example 150, 5-(3-{3-[2-hydroxy-1-(hydroxymethyl)ethyl]-2,3,4,5-tetrahydro-1H-3-benzazepin-7-yl}-1,2,4-oxadiazol-5-yl)-2-(propylamino)-3-pyridinecarbonitrile dihydrochloride] | ≤ 1000
CC(C)Oc1ccc(-c2nc(-c3ccc4c(c3)CCN(C(=O)CN[C@H](C)CO)CC4)no2)cc1C#N [Example 98, 5-[3-(3-{N-(1R)-2-hydroxy-1-methylethyl]glycyl}-2,3,4,5-tetrahydro-1H-3-benzazepin-7-yl)-1,2,4-oxadiazol-5-yl]-2-[(1-methylethyl)oxy]benzonitrile hydrochloride] | ≤ 10
COCCN1CCc2ccc(-c3noc(-c4ccc(OC(C)C)c(C#N)c4)n3)cc2CC1 [Example 21, 2-[(1-Methylethyl)oxy]-5-(3-{3-[2-(methyloxy)ethyl]-2,3,4,5-tetrahydro-1H-3-benzazepin-7-yl}-1,2,4-oxadiazol-5-yl)benzonitrile] | ≤ 100
CC(C)Oc1ccc(-c2nnc(-c3ccc4c(c3)CCN(CCCO)CC4)s2)cc1C#N [Example 29, 5-{5-[3-(3-Hydroxypropyl)-2,3,4,5-tetrahydro-1H-3-benzazepin-7-yl]-1,3,4-thiadiazol-2-yl}-2-[(1-methylethyl)oxy]benzonitrile] | ≤ 1000
CNC(=O)CCN1CCc2c(cccc2-c2nnc(-c3ccc(OC(C)C)c(C#N)c3)s2)C1 [Example 45, 3-[5-(5-{3-cyano-4-[(1-methylethyl)oxy]phenyl}-1,3,4-thiadiazol-2-yl)-3,4-dihydro-2(1H)-isoquinolinyl]-N-methylpropanamide] | > 10000
CC(=O)NCCN1CCc2ccc(-c3noc(-c4ccc(OC(C)C)c(C#N)c4)n3)cc2CC1 [Example 101, N-{2-[7-(5-{3-cyano-4-[(1-methylethyl)oxy]phenyl}-1,2,4-oxadiazol-3-yl)-1,2,4,5-tetrahydro-3H-3-benzazepin-3-yl]ethyl}acetamide] | ≤ 10
CNCCCC(=O)N1CCc2ccc(-c3noc(-c4ccc(OC(C)C)c(C#N)c4)n3)cc2CC1 [Example 83, 5-(3-{3-[4-(methylamino)butanoyl]-2,3,4,5-tetrahydro-1H-3-benzazepin-7-yl}-1,2,4-oxadiazol-5-yl)-2-[(1-methylethyl)oxy]benzonitrile] | ≤ 1000

— US20120101083A1, “S1P1 AGONISTS COMPRISING A BICYCLIC N-CONTAINING RING” (GLAXO GROUP LIMITED, priority 2009, published 2012)
